Experimental data taken from patent US20240116892A1, “HETEROCYCLIC AMIDE AND UREA COMPOUNDS AS JAK2 INHIBITORS” (Ajax Therapeutics, Inc., priority 2022, published 2024).

molecular target: JAK2 (JH1 domain-catalytic, Y1007F, Y1008F) kinase (Homo sapiens (Human), UniProt O60674, Y1007F/Y1008F); experiment: JAK2 JH1 Domain Binding Assay; conditions: qPCR readout
In short: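 JH1 catalytic domain (Y1007F/Y1008F) expressed as NFkB DNA-binding-domain fusion in HEK293 cells, DNA-tagged. Competition with immobilized biotinylated ligand on streptavidin beads, 1 h at RT in PBS/Tween/BSA/DTT; bound kinase eluted with free ligand and quantified by qPCR.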

Sequence of JAK2 (JH1 domain-catalytic, Y1007F, Y1008F) kinase (O60674 849-1124 Y1007F/Y1008F): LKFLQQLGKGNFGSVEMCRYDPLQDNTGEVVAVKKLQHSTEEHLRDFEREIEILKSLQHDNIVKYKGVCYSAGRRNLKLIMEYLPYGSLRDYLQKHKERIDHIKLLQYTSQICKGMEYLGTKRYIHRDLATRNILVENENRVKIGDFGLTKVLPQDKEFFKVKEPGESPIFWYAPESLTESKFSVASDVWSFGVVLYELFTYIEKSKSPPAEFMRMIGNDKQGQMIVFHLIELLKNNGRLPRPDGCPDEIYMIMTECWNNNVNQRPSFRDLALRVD

Row | SMILES | Kd
1 | COc1c[nH]c2ncc(N3CC[C@H](N(C)C(=O)Nc4cc(C(F)(F)F)cn(C)c4=O)[C@@H](F)C3)nc12 [Example I-149, 1-((3S,4S)-3-fluoro-1-(7-methoxy-5H-pyrrolo[2,3-b]pyrazin-2-yl)piperidin-4-yl)-1-methyl-3-(1-methyl-2-oxo-5-(trifluoromethyl)-1,2-dihydropyridin-3-yl)urea] | < 10 nM
2 | COc1c[nH]c2ncc(N3CC[C@@H](N(C)C(=O)Nc4cc(C(F)(F)F)cn(C)c4=O)[C@H](F)C3)nc12 [Example I-150, 1-((3R,4R)-3-fluoro-1-(7-methoxy-5H-pyrrolo[2,3-b]pyrazin-2-yl)piperidin-4-yl)-1-methyl-3-(1-methyl-2-oxo-5-(trifluoromethyl)-1,2-dihydropyridin-3-yl)urea] | < 10 nM
3 | COc1c[nH]c2ncc(N3CC[C@H](N(C)C(=O)Nc4cc(C(F)(F)F)cn(C)c4=O)[C@H](F)C3)nc12 [Example I-151, 1-((3R,4S)-3-fluoro-1-(7-methoxy-5H-pyrrolo[2,3-b]pyrazin-2-yl)piperidin-4-yl)-1-methyl-3-(1-methyl-2-oxo-5-(trifluoromethyl)-1,2-dihydropyridin-3-yl)urea] | < 10 nM
4 | COc1c[nH]c2ncc(N3CC[C@@H](N(C)C(=O)Nc4cc(C(F)(F)F)cn(C)c4=O)[C@@H](F)C3)nc12 [Example I-152, 1-((3S,4R)-3-fluoro-1-(7-methoxy-5H-pyrrolo[2,3-b]pyrazin-2-yl)piperidin-4-yl)-1-methyl-3-(1-methyl-2-oxo-5-(trifluoromethyl)-1,2-dihydropyridin-3-yl)urea] | < 10 nM
5 | [2H]C1([2H])C[C@@H](N(C)C(=O)Nc2cc(C(F)(F)F)cn(C)c2=O)[C@H](OC)C([2H])([2H])N1c1cnc2[nH]ncc2c1 [Example I-153-a, 1-((3R,4R)-3-methoxy-1-(1H-pyrazolo[3,4-b]pyridin-5-yl)piperidin-4-yl-2,2,6,6-d4)-1-methyl-3-(1-methyl-2-oxo-5-(trifluoromethyl)-1,2-dihydropyridin-3-yl)urea] | < 10 nM
6 | [2H]C1([2H])C[C@H](N(C)C(=O)Nc2cc(C(F)(F)F)cn(C)c2=O)[C@@H](OC)C([2H])([2H])N1c1cnc2[nH]ncc2c1 [Example I-153-b, 1-((3S,4S)-3-methoxy-1-(1H-pyrazolo[3,4-b]pyridin-5-yl)piperidin-4-yl-2,2,6,6-d4)-1-methyl-3-(1-methyl-2-oxo-5-(trifluoromethyl)-1,2-dihydropyridin-3-yl)urea] | 10 to 50 nM
7 | COc1n[nH]c2ncc(C34CC(N(C)C(=O)Nc5cc(C(F)(F)F)cn(C)c5=O)(C3)C4)cc12 [Example I-156, 1-(3-(3-methoxy-1H-pyrazolo[3,4-b]pyridin-5-yl)bicyclo[1.1.1]pentan-1-yl)-1-methyl-3-(1-methyl-2-oxo-5-(trifluoromethyl)-1,2-dihydropyridin-3-yl)urea] | < 10 nM
8 | COCCOc1n[nH]c2ncc(C34CC(N(C)C(=O)Nc5cc(C(F)(F)F)cn(C)c5=O)(C3)C4)cc12 [Example I-157, 1-(3-(3-(2-methoxyethoxy)-1H-pyrazolo[3,4-b]pyridin-5-yl)bicyclo[1.1.1]pentan-1-yl)-1-methyl-3-(1-methyl-2-oxo-5-(trifluoromethyl)-1,2-dihydropyridin-3-yl)urea] | < 10 nM
9 | CN(C(=O)Nc1cc(C(F)(F)F)cn(C)c1=O)C12CC(c3cnc4[nH]nc(OC[C@H]5COCCO5)c4c3)(C1)C2 [Example I-158, (R)-1-(3-(3-((1,4-dioxan-2-yl)methoxy)-1H-pyrazolo[3,4-b]pyridin-5-yl)bicyclo[1.1.1]pentan-1-yl)-1-methyl-3-(1-methyl-2-oxo-5-(trifluoromethyl)-1,2-dihydropyridin-3-yl)urea] | < 10 nM
10 | COCc1cc2nc(N3CC[C@H](N(C)C(=O)Nc4cc(C(F)(F)F)cn(C)c4=O)[C@H](C)C3)cnc2[nH]1 [Example I-159-a, 1-((3R,4S)-1-(6-(methoxymethyl)-5H-pyrrolo[2,3-b]pyrazin-2-yl)-3-methylpiperidin-4-yl)-1-methyl-3-(1-methyl-2-oxo-5-(trifluoromethyl)-1,2-dihydropyridin-3-yl)urea] | < 10 nM
